Experimental data: patent US20220315598A1, “Oxygen-containing Heterocyclic Compound, Preparation Method Therefor and Use Thereof” (SHANGHAI YINGLI PHARMACEUTICAL CO., LTD, priority 2019, published 2022)
Where two headings read alike, the source gives them in different places.

Legend:
NCI-H358 cells = test: Proliferation inhibition on NCI-H358 cell line by CTG method; type: cell-based, human; settings: for IC50: CellTiter Glo, 120 hours
Method: (§1) NCI-H358 was a human non-small cell lung cancer cell with KRAS G12C mutation; A549 was a human non-small cell lung cancer cell with KRAS G12V mutation: and A375 was a wild-type malignant melanoma cell. The inhibitory effects of compounds on different mutations were evaluated by testing the proliferation inhibitory activity of these compounds on the three cell lines.
(§2) 40 μL of cell suspension to be tested was added to each well (except for peripheral wells) of three 384-well plates (plate 1: NCI-H358 cell suspension: plate 2: A549 cell suspension: plate 3: A375 cell suspension). The plates were placed in a carbon dioxide incubator overnight. […] The plates were incubated in a carbon dioxide incubator for 120 hours. To the 384-well plates were added 25 μL of CellTiter Glo reagents, and the mixture was shaken in the dark for 10 minutes and incubated for 10 minutes. The plates were read on the EnVision plate reader. XLFit was used to draw inhibition rate curves of efficacy and IC50 values were calculated. […] “---” represents not determined.
Experiments for Testing Proliferation Inhibition of Compounds on NCI-H358 Cell Lines by CTG Method

MIA PaCa-2 cells = test: Proliferation inhibition on MIA PaCa-2 cell line by CTG method; type: cell-based, human; settings: for IC50: Homo sapiens, MIA PaCa-2, Table 2, CellTiter Glo, 120 hours
Method: Experiments for Testing Proliferation Inhibition of Compounds on MIA PaCa-2 Cell Lines by CTG Method
40 μL of MIA PaCa-2 cell suspension was added to each well (except for peripheral wells) of 384-well plates. The plates were placed in a carbon dioxide incubator overnight. […] The plates were incubated in a carbon dioxide incubator for 120 hours. To the 384-well plates were added 25 μL of CellTiter Glo reagents, and the mixture was shaken in the dark for 10 minutes and incubated for 10 minutes. The plates were read on the EnVision plate reader. XLFit was used to draw inhibition rate curves of efficacy and IC50 values were calculated. […] “---” represents not determined.
MIA PaCa-2 was a human pancreatic cancer cell with KRAS G12C mutation. The activity of compounds can be evaluated by detecting the proliferation inhibitory activity of these compounds on such cell line.

A549 cells = test: Proliferation inhibition on A549 cell line by CTG method; type: cell-based, human
Method: as §1, §2

A375 cells = test: Proliferation inhibition on A375 cell line by CTG method; type: cell-based; settings: Table 1, CellTiter Glo, 120 hours, class symbol
Method: as §1, §2

[1] = Homo sapiens, NCI-H358, 120 h, Table 1, number, read-out: IC50 (μM): (H358)
[2] = Homo sapiens, NCI-H358, 120 h, Table 2, number, read-out: IC50 (nM) H358
[3] = Homo sapiens, A549, 120 h, Table 1, CellTiter Glo, class symbol
[4] = Homo sapiens, NCI-H358, 120 h, Table 1, class symbol, read-out: IC50 (μM): (H358)
[5] = Table 1, CellTiter Glo, 120 hours, class symbol
[6] = Table 1, class symbol, read-out: IC50 (μM): (H358)
[7] = Homo sapiens, NCI-H358, 120 h, Table 2, class symbol, read-out: IC50 (nM) H358

Row | Structure (SMILES) | IC50 (A549 cells; [3]) [µM] | IC50 (NCI-H358 cells; [4]) [µM] | IC50 (A375 cells; Homo sapiens, A-375) [µM] | other results
1 | C=CC(=O)N1CCN(c2nc(OC[C@@H]3CCCN3C)nc3c2CCN(c2ccccc2C(F)(F)F)C3)C[C@@H]1CC#N [Comparative compound 1′, reference compound] | – | – | – | IC50 (NCI-H358 cells; [1]): 0.0073 µM; IC50 (NCI-H358 cells; [2]): 0.0073 µM; IC50 (MIA PaCa-2 cells; number): 3.9 nM
2 | C=CC(=O)N1CCN(c2nc(OC[C@@H]3CCCN3C)nc3c2CC[C@H](c2ccccc2C(F)(F)F)C3)C[C@@H]1CC#N [Comparative compound 3′, reference compound] | – | – | – | IC50 (MIA PaCa-2 cells; number): 8.3 nM
3 | C=CC(=O)N1CCN(c2nc(OC[C@@H]3CCCN3C)nc3c2COCC3)C[C@@H]1CC#N [Compound 1] | > 1 | > 1 | – | IC50 (A549 cells; Homo sapiens, A549, 120 h, Table 1, CellTiter Glo, number): > 10 µM; IC50 (NCI-H358 cells; [1]): > 10 µM
4 | C=CC(=O)N1CCN(c2nc(OC[C@@H]3CCCN3C)nc3c2COC(c2ccccc2C(F)(F)F)C3)C[C@@H]1CC#N (stereo partly shown) [Compound 2-1] | – | – | – | IC50 (A549 cells; [5]): > 1 µM; IC50 (NCI-H358 cells; [6]): < 1 µM; IC50 (A375 cells): > 1 µM
5 | C=CC(=O)N1CCN(c2nc(OC[C@@H]3CCCN3C)nc3c2COC(c2ccccc2C(F)(F)F)C3)C[C@@H]1CC#N (stereo partly shown) [Compound 2-2] | > 1 | < 1 | > 1 | IC50 (NCI-H358 cells; [1]): 0.0025 µM; IC50 (NCI-H358 cells; [2]): 0.0025 µM; proliferation inhibitory activity on NCI-H358 cells, in words (NCI-H358 cells; Table 1): significantly better than that of the corresponding comparative compound 1′; IC50 (MIA PaCa-2 cells; number): 1.9 nM; proliferation inhibitory activity, comparison in words (MIA PaCa-2 cells; text on Table 2 (H358 and MIA PaCa-2 cells)): significantly better than that of the corresponding comparative compounds 1′ and 3′
6 | C=CC(=O)N1CCN(c2nc(OC[C@@H]3CCCN3C)nc3c2COC(c2cccc4ccccc24)C3)C[C@@H]1CC#N (stereo partly shown) [Compound 3-1] | – | – | > 1 | –
7 | C=CC(=O)N1CCN(c2nc(OC[C@@H]3CCCN3C)nc3c2COC(c2cccc4ccccc24)C3)C[C@@H]1CC#N (stereo partly shown) [Compound 3-2] | – | – | – | IC50 (A375 cells): > 1 µM
8 | C=CC(=O)N1CCN(c2nc(OC[C@@H]3CCCN3C)nc3c2COC(c2cccc4cccc(C)c24)C3)C[C@@H]1CC#N (stereo partly shown) [Compound 4-1] | – | – | > 1 | IC50 (NCI-H358 cells; [6]): < 1 µM
9 | C=CC(=O)N1CCN(c2nc(OC[C@@H]3CCCN3C)nc3c2COC(c2cccc4cccc(C)c24)C3)C[C@@H]1CC#N (stereo partly shown) [Compound 4-2] | – | – | – | IC50 (A549 cells; [5]): > 1 µM; IC50 (NCI-H358 cells; [6]): < 1 µM; IC50 (A375 cells): > 1 µM
10 | C=CC(=O)N1CCN(c2nc(OCCN(C)C)nc3c2COC(c2cccc4cccc(C)c24)C3)C[C@@H]1CC#N (stereo partly shown) [Compound 5] | > 1 | < 1 | – | –
11 | C=CC(=O)N1CCN(c2nc(OCCN(CC)CC)nc3c2COC(c2cccc4cccc(C)c24)C3)C[C@@H]1CC#N (stereo partly shown) [Compound 6-2] | > 1 | < 1 | – | –
12 | C=CC(=O)N1CCN(c2nc(OC[C@@H]3CCCN3C)nc3c2COC(c2cccc4cccc(C)c24)C3)CC1 (stereo partly shown) [Compound 8] | > 1 | < 1 | – | –
13 | C=CC(=O)N1CCN(c2nc(N(C)CCN(C)C)nc3c2COC(c2cccc4cccc(C)c24)C3)C[C@@H]1CC#N (stereo partly shown) [Compound 9] | > 1 | < 1 | – | –
14 | C=CC(=O)N1CCN(c2nc(OC[C@@H]3CCCN3C)nc3c2COC(c2cccc4cccc(C)c24)C3)[C@@H](C)C1 (stereo partly shown) [Compound 11-2] | > 1 | < 1 | > 1 | –
15 | C=C(F)C(=O)N1CCN(c2nc(OC[C@@H]3CCCN3C)nc3c2COC(c2cccc4cccc(Cl)c24)C3)C[C@@H]1CC#N (stereo partly shown) [Compound 12-2] | > 1 | < 1 | > 1 | –
16 | C=C(F)C(=O)N1CCN(c2nc(OC[C@@H]3CCCN3C)nc3c2COC(c2cccc4cccc(C)c24)C3)C[C@@H]1CC#N (stereo partly shown) [Compound 13] | > 1 | < 1 | > 1 | –
17 | C=CC(=O)N1CCN(c2nc(OC(C)CN(C)C)nc3c2COC(c2cccc4cccc(C)c24)C3)C[C@@H]1CC#N (stereo partly shown) [Compound 14] | > 1 | < 1 | > 1 | –
18 | C=CC(=O)N1CCN(c2nc(OC[C@@H]3CC(F)(F)CN3C)nc3c2COC(c2cccc4cccc(C)c24)C3)C[C@@H]1CC#N (stereo partly shown) [Compound 15] | > 1 | < 1 | > 1 | –
19 | C=CC(=O)N1CCN(c2nc(OC[C@H]3CCCN3C)nc3c2COC(c2cccc4cccc(C)c24)C3)C[C@@H]1CC#N (stereo partly shown) [Compound 16] | > 1 | < 1 | > 1 | –
20 | CC#CC(=O)N1CCN(c2nc(OC[C@@H]3CCCN3C)nc3c2COC(c2cccc4cccc(C)c24)C3)C[C@@H]1CC#N (stereo partly shown) [Compound 24] | > 1 | < 1 | > 1 | –
21 | C=CC(=O)N1CCN(c2nc(OC[C@@H]3CCCN3C)nc3c2COC(c2cccc4cccc(Cl)c24)C3)C[C@@H]1CC#N (stereo partly shown) [Compound 25] | > 1 | < 1 | > 1 | –
22 | C=C(F)C(=O)N1CCN(c2nc(OC[C@@H]3CCCN3C)nc3c2COC(c2ccccc2Cl)C3)C[C@@H]1CC#N (stereo partly shown) [Compound 30] | > 1 | < 1 | > 1 | –
23 | Cc1cccc2cccc(C3Cc4nc(OC[C@@H]5CCCN5C)nc(N5CCN(C(=O)/C=C/CN6CCOCC6)[C@@H](CC#N)C5)c4CO3)c12 (stereo partly shown) [Compound 31] | > 1 | < 1 | > 1 | –
24 | CN(C)C/C=C/C(=O)N1CCN(c2nc(OC[C@@H]3CCCN3C)nc3c2CO[C@H](c2cccc4cccc(Cl)c24)C3)C[C@@H]1CC#N [Compound 36] | – | – | – | IC50 (NCI-H358 cells; [7]): < 1 µM
25 | C=CC(=O)N1CCN(c2nc(OC[C@@H]3CCCN3C)nc3c2COC(c2cncc4ccccc24)C3)C[C@@H]1CC#N (stereo partly shown) [Compound 40] | – | – | – | IC50 (MIA PaCa-2 cells; class symbol): < 1000 nM
26 | CN1CCC[C@H]1COc1nc2c(c(N3CCN(C#N)[C@@H](CC#N)C3)n1)CO[C@H](c1cccc3cccc(Cl)c13)C2 [Compound 41] | – | – | – | IC50 (NCI-H358 cells; [7]): < 1 µM
27 | CC(=O)/C=C/C(=O)N1CCN(c2nc(OC[C@@H]3CCCN3C)nc3c2CO[C@H](c2cccc4cccc(Cl)c24)C3)C[C@@H]1CC#N [Compound 44] | – | – | – | IC50 (NCI-H358 cells; [7]): < 1 µM
28 | C=CC(=O)N1CCN(c2nc(NCCN(C)C)nc3c2CO[C@H](c2cccc4cccc(Cl)c24)C3)C[C@@H]1CC#N [Compound 45] | – | – | – | IC50 (NCI-H358 cells; [7]): < 1 µM
29 | C=CC(=O)N1CCN(c2nc(SCCN(C)C)nc3c2CO[C@H](c2cccc4cccc(Cl)c24)C3)C[C@@H]1CC#N [Compound 46] | – | – | – | IC50 (NCI-H358 cells; [7]): < 1 µM

More lines, main results first:

Row | IC50 (A549 cells; [3]) [µM] | IC50 (NCI-H358 cells; [4]) [µM] | IC50 (A375 cells; Homo sapiens, A-375) [µM] | Structure (SMILES) | other results
30 | > 1 | < 1 | – | C=CC(=O)N1CCN(c2nc(OC[C@@H]3CCCN3C)nc3c2COC(c2cccc4ccccc24)C3)C[C@@H]1CC#N (stereo partly shown) [Compound 3] | –
31 | > 1 | < 1 | – | C=CC(=O)N1CCN(c2nc(OC[C@@H]3CCCN3C)nc3c2COC(c2cccc4cccc(C)c24)C3)C[C@@H]1CC#N (stereo partly shown) [Compound 4] | –
32 | > 1 | < 1 | – | C=CC(=O)N1CCN(c2nc(OCCCN(C)C)nc3c2COC(c2cccc4cccc(C)c24)C3)C[C@@H]1CC#N (stereo partly shown) [Compound 7] | –
33 | > 1 | < 1 | > 1 | C/C=C/C(=O)N1CCN(c2nc(OC[C@@H]3CCCN3C)nc3c2COC(c2cccc4cccc(C)c24)C3)C[C@@H]1CC#N (stereo partly shown) [Compound 10] | –
34 | > 1 | < 1 | > 1 | Cc1cccc2cccc(C3Cc4nc(OC[C@@H]5CCCN5C)nc(N5CCN(C(=O)/C=C/CN(C)C)[C@@H](CC#N)C5)c4CO3)c12 (stereo partly shown) [Compound 17] | –
35 | > 1 | < 1 | > 1 | C=C(F)C(=O)N1CCN(c2nc(OC[C@H]3CCCN3C)nc3c2COC(c2ccccc2C(F)(F)F)C3)C[C@@H]1CC#N (stereo partly shown) [Compound 19-2] | –
36 | > 1 | < 1 | > 1 | C=C(F)C(=O)N1CCN(c2nc(OC[C@H]3CCCN3C)nc3c2COC(c2cccc4cccc(Cl)c24)C3)C[C@@H]1CC#N (stereo partly shown) [Compound 32-2] | –
